Test results taken from patent publication US20120029016A1, “Indoles Useful in the Treatment of Inflammation” (BIOLIPOX AB, priority 2008, published 2012).

How the values were obtained:
[1] = molecular target: T1, Recombinant human LTC4 synthase (Homo sapiens, UniProt Q16873); experiment: In vitro assay Method A: LTC4 synthase, LTA4 methyl ester to LTC4 methyl ester, HPLC; format: biochemical; details: total concentration of title compound 10 μM, read-out: % inh. of LTC4 synthase
T1 construct: made in house; host or cells: Pichia pastoris ('Piccia pastoralis' [sic])
T1 sequence (Q16873 1-150): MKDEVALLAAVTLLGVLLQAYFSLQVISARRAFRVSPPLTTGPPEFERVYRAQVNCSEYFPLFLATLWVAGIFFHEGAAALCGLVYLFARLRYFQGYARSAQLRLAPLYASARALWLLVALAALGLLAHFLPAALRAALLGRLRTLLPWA
Protocol: In the assay, LTC4 synthase catalyses the reaction where the substrate LTA4 methyl ester is converted to the corresponding LTC4 methyl ester. Recombinant human LTC4 synthase is expressed in Piccia pastoralis and the purified enzyme is dissolved in 25 mM Tris-buffer pH 7.8 and stored at −20° C. The assay is performed in phosphate buffered saline (PBS) pH 7.4, supplemented with 5 mM glutathione (GSH). The reaction is terminated by addition of MeCN/MeOH/acetic acid (50/50/1). The assay is performed at rt in 96-well plates. Analysis of the formed LTC4 methyl ester is performed with reversed phase HPLC (Waters 2795 utilizing an Onyx Monolithic C18 column). The mobile phase consists of MeCN/MeOH/H2O (32.5/30/37.5) with 1% acetic acid, pH adjusted with NH3 to 5.6, and absorbance measured at 280 nm with a Waters 2487 UV-detector.
(§1) The following is added chronologically to each well: • 1. 50 μL assay buffer, PBS with 5 mM GSH. • 2. 0.5 μL inhibitor in DMSO. • 3. 2 μL LTC4 synthase in PBS. The total protein concentration in this solution is 0.025 mg/mL. Incubation of the plate at rt for 10 min. • 4. 1-1.5 μL LTA4 methyl ester (final conc. 10 μM). Incubation of the plate at rt for 1 min. • 5. 50 μL stop solution. 80 μL of the incubation mixture is analysed with HPLC.

[2] = molecular target: T1, Recombinant human LTC4 synthase; experiment: In vitro assay Method B: LTC4 synthase, LTA4 to LTC4, HTRF detection; format: biochemical; details: total concentration of title compound 10 μM, read-out: % inh. of LTC4 synthase
Protocol: In the assay, LTC4 synthase catalyses the reaction where the substrate LTA4 is converted to LTC4. Recombinant human LTC4 synthase is expressed in Piccia pastoralis and the purified enzyme is dissolved in 25 mM Tris-buffer pH 7.8 and stored at −20° C. The assay is performed in phosphate buffered saline (PBS) pH 7.4, supplemented with 5 mM glutathione (GSH). The assay is performed at rt in 384-well plates. Analysis of the formed LTC4 is performed using costume made homogenous time-resolved fluorescence (HTRF) detection (Cisbio).
as §1, with “2 μl” for “2 μL”, “0.025 mg/ml.” for “0.025 mg/mL.”, “LTA4” for “LTA4 methyl ester”, “conc. 2.5” for “conc. 10”, “min. 10” for “min. • 5. 50 μL stop solution. 80”, “analysed using HTRF detection.” for “analysed with HPLC.”

[3] = test system: cysteinyl leukotrienes concentration in the peritoneal lavage; experiment: Mouse peritoneal inflammation model (zymosan ip), cysteinyl leukotrienes in peritoneal lavage by EIA; format: in vivo, Male BALB/c mice; details: 0.5 h, 5 min before zymosan, lavage 30 min after zymosan, read-out: %-inhibition of cysteinyl leukotrienes concentration vs vehicle treated mice; for inhibition in vivo at 3 mg/kg: 3 mg/kg ip; for inhibition in vivo at 10 mg/kg: 10 mg/kg ip
Protocol: The in vivo efficacy of leukotriene biosynthesis inhibitors was assed by using a model of peritoneal inflammation. Male BALB/c mice (weighing 20-25 grams) received an intraperitoneal injection (ip) of 0.5 ml zymosan dissolved in phosphate buffer saline (PBS) (pH 7.5, 1 mg/mL). 5 Minutes before the zymosan injection compounds (1-10 mg/kg) or vehicle were administered ip (10 mL/kg). 30 min after the zymosan injection the mice were anaesthetized and the peritoneal cavity was flushed with 4 mL PBS. The peritoneal lavage was centrifuged at 6000 rcf for 5 minutes and the cysteinyl leukotrienes concentration in the supernatant was determined by EIA. The cysteinyl leukotrienes concentration in the peritoneal lavage from compound treated mice was compared to vehicle treated mice and the % inhibition was calculated.

Row | Compound | inhibition at 10 µM [2] [%] | other results
1 | CC(C)Oc1ccc(Oc2ccc3c(c2)c(C(=O)O)c(CC(=O)O)n3-c2ccc(OCc3ccc4ccccc4n3)cc2)cc1 [1:10, 2-Carboxymethyl-1-5-(4-isopropoxyphenoxy)-[4-(2-quinolinylmethoxy)-phenyl]indole-3-carboxylic acid] | – | inhibition at 10 µM [1]: 98%
2 | CCN(c1ccc(-n2c(CC(=O)O)c(C(=O)O)c3cc(Oc4ccc(OC(F)(F)F)cc4)ccc32)cc1)c1cccc(C)c1 [6:4, 2-Carboxymethyl-1-{4-[ethyl(m-tolyl)amino]phenyl}-5-(4-trifluoromethoxy-phenoxy)indole-3-carboxylic acid] | 94 | –
3 | O=C(O)Cc1c(C(=O)O)c2cc(Oc3ccc(OC(F)(F)F)cc3)ccc2n1-c1ccc(NC2CCCC2)cc1 [6:5, 2-Carboxymethyl-1-(4-cyclopentylaminophenyl)-5-(4-trifluoromethoxy-phenoxy)indole-3-carboxylic acid] | 100 | –
4 | O=C(O)Cc1c(C(=O)O)c2cc(Oc3ccc(OC(F)(F)F)cc3)ccc2n1-c1ccc(NCC2CCCCC2)cc1 [6:6, 2-Carboxymethyl-1-(4-cyclohexylmethylaminophenyl)-5-(4-trifluoro-methoxyphenoxy)indole-3-carboxylic acid] | 97 | –
5 | CCCCCCCCNc1ccc(-n2c(CC(=O)O)c(C(=O)O)c3cc(Oc4ccc(OC(F)(F)F)cc4)ccc32)cc1 [6:7, 2-Carboxymethyl-1-(4-octylaminophenyl)-5-(4-trifluoromethoxyphenoxy)-indole-3-carboxylic acid] | 98 | –
6 | O=C(O)Cc1c(C(=O)O)c2cc(Oc3ccc(OC(F)(F)F)cc3)ccc2n1-c1ccc(Nc2cccc3c2CCCC3)cc1 [6:8, 2-Carboxymethyl-1-[4-(5,6,7,8-tetrahydro-1-naphthylamino)phenyl]-5-(4-trifluoromethoxyphenoxy)indole-3-carboxylic acid] | 97 | –
7 | O=C(O)Cc1c(C(=O)O)c2cc(Oc3ccc(OC(F)(F)F)cc3)ccc2n1-c1ccc(NCc2ccccc2)cc1 [6:9, 1-(4-benzylaminophenyl)-2-carboxymethyl-5-(4-trifluoromethoxy-phenoxy)indole-3-carboxylic acid] | 100 | –
8 | CC(C)Oc1ccc(Oc2ccc3c(c2)c(C(=O)O)c(CC(=O)O)n3-c2ccc(OCc3ccccc3)cc2)cc1 [Example 1:1, 1-(4-Benzyloxyphenyl)-2-carboxymethyl-5-(4-isopropoxyphenoxy)indole-3-carboxylic acid] | 99 | inhibition in vivo at 1 mg/kg ([3]; 1 mg/kg ip): 78%; inhibition in vivo at 3 mg/kg [3]: 92%; inhibition in vivo at 10 mg/kg [3]: 100%
9 | Cc1ccc(COc2ccc(-n3c(CC(=O)O)c(C(=O)O)c4cc(Oc5ccc(OC(C)C)cc5)ccc43)cc2)cc1 [Example 1:2, 2-Carboxymethyl-5-(4-isopropoxyphenoxy)-1-(4-(4-methylbenzyloxy)phenyl)indole-3-carboxylic acid] | 96 | –
10 | COc1ccc(COc2ccc(-n3c(CC(=O)O)c(C(=O)O)c4cc(Oc5ccc(OC(C)C)cc5)ccc43)cc2)cc1 [Example 1:5, 2-Carboxymethyl-1-5-(4-isopropoxyphenoxy)-[4-(4-methoxybenzyloxy)-phenyl]indole-3-carboxylic acid] | 97 | inhibition in vivo at 10 mg/kg [3]: 92%
11 | CC(C)Oc1ccc(Oc2ccc3c(c2)c(C(=O)O)c(CC(=O)O)n3-c2ccc(OCc3ccccc3C(F)(F)F)cc2)cc1 [Example 1:8, 2-Carboxymethyl-1-5-(4-isopropoxyphenoxy)-[4-(2-trifluoromethyl-benzyloxy)phenyl]indole-3-carboxylic acid] | 98 | inhibition in vivo at 10 mg/kg [3]: 96%
12 | CC(C)Oc1ccc(Oc2ccc3c(c2)c(C(=O)O)c(CC(=O)O)n3-c2ccc(OCc3ccccn3)cc2)cc1 [Example 1:9, 2-Carboxymethyl-1-5-(4-isopropoxyphenoxy)-[4-(2-pyridinylmethoxy)-phenyl]indole-3-carboxylic acid] | 98 | inhibition in vivo at 3 mg/kg [3]: 97%
13 | O=C(O)Cc1c(C(=O)O)c2cc(Oc3ccc(OC(F)(F)F)cc3)ccc2n1-c1ccc(OCc2ccccc2)cc1 [Example 2:1, 1-(4-Benzyloxyphenyl)-2-carboxymethyl-5-(4-trifluoromethoxyphenoxy)indole-3-carboxylic acid] | – | inhibition at 10 µM [1]: 89%
14 | CC(C)Oc1ccc(Oc2ccc3c(c2)c(C(=O)O)c(CC(=O)O)n3-c2ccc(Oc3ccc(Cl)cc3)cc2)cc1 [Example 3:3, 2-Carboxymethyl-1-[4-(4-chlorophenoxy)phenyl]-5-(4-isopropoxy-phenoxy)indole-3-carboxylic acid] | 96 | inhibition in vivo at 10 mg/kg [3]: 100%
15 | CC(C)Oc1ccc(Oc2ccc3c(c2)c(C(=O)O)c(CC(=O)O)n3-c2ccc(OC3CCCC3)cc2)cc1 [Example 4:1, 2-Carboxymethyl-1-(4-cyclopentyloxyphenyl)-5-(4-isopropoxyphenoxy)-indole-3-carboxylic acid] | 98 | inhibition in vivo at 10 mg/kg [3]: 96%
16 | O=C(O)Cc1c(C(=O)O)c2cc(Oc3ccc(OC(F)(F)F)cc3)ccc2n1-c1ccc(OC2CCCCC2)cc1 [Example 4:5, 2-Carboxymethyl-1-(4-cyclohexyloxyphenyl)-5-(4-trifluoromethoxyphenoxy)indole-3-carboxylic acid] | 99 | inhibition in vivo at 3 mg/kg [3]: 97%
17 | CC(C)Oc1ccc(Oc2ccc3c(c2)c(C(=O)O)c(CC(=O)O)n3-c2ccc(OC3CCC(C)(C)CC3)cc2)cc1 [Example 5:1, 2-Carboxymethyl-1-[4-(4,4-dimethylcyclohexyloxy)phenyl]-5-(4-isopropoxyphenoxy)indole-3-carboxylic acid] | 97 | –
18 | CCCCCCCCOc1ccc(-n2c(CC(=O)O)c(C(=O)O)c3cc(Oc4ccc(OC(C)C)cc4)ccc32)cc1 [Example 5:2, 2-Carboxymethyl-1-(4-octyloxyphenyl)-5-(4-isopropoxyphenoxy)indole-3-carboxylic acid] | 97 | inhibition in vivo at 3 mg/kg [3]: 94%
19 | O=C(O)Cc1c(C(=O)O)c2cc(Oc3ccc(OC(F)(F)F)cc3)ccc2n1-c1ccc(NCc2ccc(Cl)nc2)cc1 [Example 6:2, 2-Carboxymethyl-1-{4-[(6-chloro-3-pyridinylmethyl)amino]phenyl}-5-(4-trifluoromethoxyphenoxy)indole-3-carboxylic acid] | 95 | –
